Data on 22 compounds can be found in PubChem BioAssay AID256 (DTP/NCI, 2004).

This assay deals with CD2F1 mice, L1210 leukemia ip, survival T/C. The assay can be described thus: NCI In Vivo Anticancer Drug Screen. Data for tumor model L1210 Leukemia (intraperitoneal) in CD2F1 (CDF1) mice. Particulars: higher = longer survival. The method in brief:
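Ratio T/C, where T is the treated-group value and C the vehicle-dosed control value, from mice implanted with a transplantable tumor.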

Where [1] appears, read: endpoint: mean survival time, dose: 100.0 mg/kg/injection, schedule: Q04DX003 (ip), vehicle: saline.
[2] abbreviates: endpoint: mean survival time, dose: 200.0 mg/kg/injection, schedule: Q04DX003 (ip), vehicle: saline.
Setting [3] is: endpoint: mean survival time, dose: 400.0 mg/kg/injection, schedule: Q04DX003 (ip), vehicle: saline.
Setting [4] is: endpoint: mean survival time, dose: 50.0 mg/kg/injection, schedule: Q04DX002 (ip), vehicle: saline with Tween-80.
Where [5] appears, read: endpoint: mean survival time, dose: 100.0 mg/kg/injection, schedule: Q01DX001 (ip), vehicle: saline with Tween-80.
The mark [6] stands for this setting: endpoint: mean survival time, dose: 100.0 mg/kg/injection, schedule: Q01DX009 (ip), vehicle: saline with Tween-80.
The mark [7] stands for this setting: endpoint: mean survival time, dose: 100.0 mg/kg/injection, schedule: Q04DX003 (ip), vehicle: saline with Tween-80.
[8] abbreviates: endpoint: mean survival time, dose: 200.0 mg/kg/injection, schedule: Q01DX001 (ip), vehicle: saline with Tween-80.
[9] abbreviates: endpoint: mean survival time, dose: 200.0 mg/kg/injection, schedule: Q01DX009 (ip), vehicle: saline with Tween-80.
The mark [10] stands for this setting: endpoint: mean survival time, dose: 200.0 mg/kg/injection, schedule: Q04DX003 (ip), vehicle: saline with Tween-80.
Setting [11] is: endpoint: mean survival time, dose: 400.0 mg/kg/injection, schedule: Q01DX001 (ip), vehicle: saline with Tween-80.
Setting [12] is: endpoint: mean survival time, dose: 400.0 mg/kg/injection, schedule: Q01DX009 (ip), vehicle: saline with Tween-80.
The mark [13] stands for this setting: endpoint: mean survival time, dose: 400.0 mg/kg/injection, schedule: Q04DX002 (ip), vehicle: saline with Tween-80.
Setting [14] is: endpoint: mean survival time, dose: 400.0 mg/kg/injection, schedule: Q04DX003 (ip), vehicle: saline with Tween-80.
The mark [15] stands for this setting: endpoint: mean survival time, dose: 50.0 mg/kg/injection, schedule: Q01DX001 (ip), vehicle: saline.
Setting [16] is: endpoint: mean survival time, dose: 100.0 mg/kg/injection, schedule: Q01DX001 (ip), vehicle: saline.
The mark [17] stands for this setting: endpoint: mean survival time, dose: 200.0 mg/kg/injection, schedule: Q01DX001 (ip), vehicle: saline.

“And” between values parts separate entries of the source, which are not always exact repeats. Equal values may be shown once. Toxic doses and inconclusive results are not listed.

`Oc1ccccc1N=Cc1ccccc1`: the T/C reads like this: under setting [1], 102 % of control; under setting [2], 100 % of control; under setting [3], 101 % of control.
On to `O=C(NC(=S)Nc1cccc2ccccc12)c1cccc(Br)c1`, for which the T/C was 89 % of control and 98 % of control under setting [4]; 96 % of control under setting [5]; 98 % of control and 104 % of control under setting [6]; 96 % of control under setting [7]; 95 % of control under setting [8]; 96 % of control and 98 % of control under setting [9]. Moreover, the T/C was 100 % of control under setting [10]; 95 % of control under setting [11]; 102 % of control and 106 % of control under setting [12]; 90 % of control and 95 % of control under setting [13]; 96 % of control under setting [14].
With `CCOC(=O)c1cc(C[N+](C)(C)C)oc1C`, the T/C was 96 % of control (endpoint: mean survival time, dose: 25.0 mg/kg/injection, schedule: Q01DX001 (ip), vehicle: saline); 102 % of control under setting [15]; 106 % of control under setting [5]; 98 % of control under setting [16].
As to `ClCCN(Cc1ccccc1)Cc1ccccc1`, the T/C (endpoint: mean survival time, dose: 3.13 mg/kg/injection, schedule: Q01DX009 (ip), vehicle: saline with Tween-80) was 100 % of control; the T/C (endpoint: mean survival time, dose: 6.25 mg/kg/injection, schedule: Q01DX009 (ip), vehicle: saline with Tween-80) was 102 % of control; the T/C (endpoint: mean survival time, dose: 12.5 mg/kg/injection, schedule: Q01DX009 (ip), vehicle: saline with Tween-80) is 96 % of control.
As to `CCCCCCCCNCCNCCCCCCCC`, the T/C runs as follows: (endpoint: mean survival time, dose: 3.75 mg/kg/injection, schedule: Q01DX009 (ip), vehicle: Klucel (hydroxypropylcellulose) (HPC)) 95 % of control; (endpoint: mean survival time, dose: 7.5 mg/kg/injection, schedule: Q01DX009 (ip), vehicle: Klucel (hydroxypropylcellulose) (HPC)) 95 % of control; (endpoint: mean survival time, dose: 15.0 mg/kg/injection, schedule: Q01DX009 (ip), vehicle: Klucel (hydroxypropylcellulose) (HPC)) 87 % of control.
For `O=C1C(=O)c2ccc(Br)cc2C(O)=C1/C=C/c1ccccc1`, the T/C by setting is: under setting [15], 104 % of control; under setting [16], 101 % of control; under setting [17], 103 % of control.
With `O=P(Oc1ccccc1)(Oc1ccccc1)N(CCCl)CCCl`, the T/C (endpoint: mean survival time, dose: 12.5 mg/kg/injection, schedule: Q01DX009 (ip), vehicle: water) was 101 % of control; the T/C (endpoint: mean survival time, dose: 25.0 mg/kg/injection, schedule: Q01DX009 (ip), vehicle: water) was 100 % of control and 108 % of control; the T/C (endpoint: mean survival time, dose: 31.25 mg/kg/injection, schedule: Q01DX001 (ip), vehicle: distilled water + Tween-80) was 104 % of control; the T/C (endpoint: mean survival time, dose: 50.0 mg/kg/injection, schedule: Q01DX009 (ip), vehicle: water) is 104 % of control; the T/C (endpoint: mean survival time, dose: 62.5 mg/kg/injection, schedule: Q01DX001 (ip), vehicle: distilled water + Tween-80) was 107 % of control; the T/C (endpoint: mean survival time, dose: 100.0 mg/kg/injection, schedule: Q01DX009 (ip), vehicle: water) is 161 % of control. The T/C is, setting by setting: (endpoint: mean survival time, dose: 125.0 mg/kg/injection, schedule: Q01DX001 (ip), vehicle: distilled water + Tween-80) 102 % of control; (endpoint: mean survival time, dose: 250.0 mg/kg/injection, schedule: Q01DX001 (ip), vehicle: distilled water + Tween-80) 119 % of control.
With `CC(C)(C)OC(=O)NC(CSCc1ccccc1)C(=O)Oc1ccc([N+](=O)[O-])cc1` (stereo unspecified), the T/C was 95 % of control under setting [7], 90 % of control under setting [10] and 86 % of control under setting [14].
Take `CCOC(=O)c1ccc(NC(=O)N(C)C2CCCCC2)cc1`: the T/C reads like this: (endpoint: mean survival time, dose: 50.0 mg/kg/injection, schedule: Q01DX009 (ip), vehicle: saline with Tween-80) 95 % of control and 102 % of control; under setting [6], 100 % of control and 104 % of control; (endpoint: mean survival time, dose: 100.0 mg/kg/injection, schedule: Q04DX002 (ip), vehicle: saline with Tween-80) 91 % of control and 92 % of control; under setting [7], 92 % of control; under setting [9], 100 % of control and 104 % of control; (endpoint: mean survival time, dose: 200.0 mg/kg/injection, schedule: Q04DX002 (ip), vehicle: saline with Tween-80) 92 % of control and 109 % of control. The T/C reads like this: under setting [10], 96 % of control; under setting [13], 102 % of control; under setting [14], 91 % of control.
Turning to `O=C1C=CC(=O)N1c1ccccc1Cl` (tested in a mixture with another compound), the T/C by setting is: under setting [6], 95 % of control; under setting [9], 96 % of control; under setting [12], 98 % of control.
As to `C1CCC(N2CCOCC2)CC1`, the T/C is, setting by setting: (endpoint: mean survival time, dose: 25.0 mg/kg/injection, schedule: Q04DX002 (ip), vehicle: saline) 105 % of control; (endpoint: mean survival time, dose: 50.0 mg/kg/injection, schedule: Q04DX002 (ip), vehicle: saline) 102 % of control.
For `O=C(O)CCC1CC(=O)OC12CCCCC2` (stereo unspecified), the T/C reads like this: under setting [5], 96 % of control; under setting [8], 96 % of control; under setting [11], 91 % of control.
For the compound `O=C1c2ccccc2CCC1(Br)Cc1ccccc1` (stereo unspecified), the T/C reads like this: under setting [5], 98 % of control; under setting [8], 96 % of control; under setting [11], 94 % of control.
For `C1CC[N-]CC1.C1CC[N-]CC1.[Cl][Pd][Cl]`, the T/C reads like this: (endpoint: mean survival time, dose: 25.0 mg/kg/injection, schedule: Q04DX002 (ip), vehicle: saline with Tween-80) 89 % of control; under setting [4], 96 % of control.
For `O=[As](O)(O)CC(Br)CBr` (stereo unspecified), the T/C is, setting by setting: under setting [6], 100 % of control; under setting [9], 94 % of control.
With `CCC(C)CC(=O)O` (stereo unspecified), the T/C (endpoint: mean survival time, dose: 100.0 mg/kg/injection, schedule: Q01DX009 (ip), vehicle: saline) was 95 % of control; the T/C under setting [1] was 102 % of control; the T/C (endpoint: mean survival time, dose: 200.0 mg/kg/injection, schedule: Q01DX009 (ip), vehicle: saline) is 98 % of control; the T/C under setting [2] is 102 % of control; the T/C (endpoint: mean survival time, dose: 400.0 mg/kg/injection, schedule: Q01DX009 (ip), vehicle: saline) is 96 % of control; the T/C under setting [3] is 97 % of control.
For the compound `Cc1nc(-c2ccccc2)c(Cc2ccccc2O)c(=O)[nH]1`, the T/C runs as follows: under setting [16], 97 % of control; under setting [17], 97 % of control; (endpoint: mean survival time, dose: 400.0 mg/kg/injection, schedule: Q01DX001 (ip), vehicle: saline) 100 % of control.
For the compound `COc1ccc(CN2CCCNCC2)cc1`, the T/C is, setting by setting: (endpoint: mean survival time, dose: 12.5 mg/kg/injection, schedule: Q01DX005 (ip), vehicle: water) 95 % of control; (endpoint: mean survival time, dose: 25.0 mg/kg/injection, schedule: Q01DX005 (ip), vehicle: water) 95 % of control; (endpoint: mean survival time, dose: 50.0 mg/kg/injection, schedule: Q01DX005 (ip), vehicle: water) 97 % of control; (endpoint: mean survival time, dose: 100.0 mg/kg/injection, schedule: Q01DX005 (ip), vehicle: water) 101 % of control; (endpoint: mean survival time, dose: 200.0 mg/kg/injection, schedule: Q01DX005 (ip), vehicle: water) 95 % of control.
In the case of `Cc1ccccc1/C1=C/CCCCCC1`, the T/C (endpoint: mean survival time, dose: 100.0 mg/kg/injection, schedule: Q01DX001 (ip), vehicle: saline sonified) is 107 % of control; the T/C under setting [7] was 102 % of control; the T/C (endpoint: mean survival time, dose: 200.0 mg/kg/injection, schedule: Q01DX001 (ip), vehicle: saline sonified) was 94 % of control; the T/C under setting [10] was 104 % of control; the T/C (endpoint: mean survival time, dose: 400.0 mg/kg/injection, schedule: Q01DX001 (ip), vehicle: saline sonified) is 89 % of control; the T/C under setting [14] is 93 % of control.
As to `N#CCN(CC#N)CCN(CC#N)CC#N`, the T/C under setting [6] was 92 % of control; the T/C under setting [7] is 97 % of control; the T/C under setting [9] is 93 % of control; the T/C under setting [10] is 97 % of control; the T/C under setting [12] is 104 % of control; the T/C under setting [14] was 97 % of control.
`NC(=S)NCc1ccccc1`: the T/C by setting is: under setting [6], 89 % of control; under setting [7], 105 % of control; under setting [9], 91 % of control; under setting [10], 101 % of control; under setting [14], 112 % of control.
As for `Cc1ccc(C(=O)Nc2ccc(S(=O)(=O)O)c3cc(S(=O)(=O)O)cc(S(=O)(=O)O)c23)cc1NC(=O)c1cccc(NC(=O)Nc2cccc(C(=O)Nc3cc(C(=O)Nc4ccc(S(=O)(=O)O)c5cc(S(=O)(=O)O)cc(S(=O)(=O)O)c45)ccc3C)c2)c1`, the T/C reads like this: (endpoint: median survival time, dose: 12.5 mg/kg/injection, schedule: Q01DX005 (ip), vehicle: saline) 101 % of control; (endpoint: median survival time, dose: 25.0 mg/kg/injection, schedule: Q01DX005 (ip), vehicle: saline) 101 % of control; (endpoint: median survival time, dose: 50.0 mg/kg/injection, schedule: Q01DX005 (ip), vehicle: saline) 116 % of control.
